Source: BindingDB's records for doi:10.1021/acschembio.5b00514 (Technische Universität München, 2015)

Columns and labels:
Assay in all cases: Activity-based Protein Profiling (ABPP)
Details in all cases: pH 7.4; 37 °C
[1] = target: T1, AN1-type domain-containing protein (Archaeoglobus fulgidus (strain ATCC 49558 / DSM 4304 / JCM 9628 / NBRC 100126 / VC-16), UniProt O29251)
T1 sequence (O29251 whole entry): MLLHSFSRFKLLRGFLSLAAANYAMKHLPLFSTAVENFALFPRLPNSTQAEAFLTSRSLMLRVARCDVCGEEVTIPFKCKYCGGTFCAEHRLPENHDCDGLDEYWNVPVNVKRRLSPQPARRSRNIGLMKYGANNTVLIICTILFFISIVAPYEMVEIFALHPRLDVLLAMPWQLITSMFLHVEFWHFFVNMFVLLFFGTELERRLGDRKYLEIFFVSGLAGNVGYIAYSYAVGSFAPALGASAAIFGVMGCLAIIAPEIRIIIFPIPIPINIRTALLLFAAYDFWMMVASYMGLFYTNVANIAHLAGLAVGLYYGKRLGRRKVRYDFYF
Description: (§1) We selected several inhibitor structures and determined their apparent IC50 by competitive ABPP.

Rhomboid protease GlpG [2] = target: T2, Rhomboid protease GlpG (Haemophilus influenzae, UniProt A0A2R3FW87)
T2 sequence (A0A2R3FW87 whole entry): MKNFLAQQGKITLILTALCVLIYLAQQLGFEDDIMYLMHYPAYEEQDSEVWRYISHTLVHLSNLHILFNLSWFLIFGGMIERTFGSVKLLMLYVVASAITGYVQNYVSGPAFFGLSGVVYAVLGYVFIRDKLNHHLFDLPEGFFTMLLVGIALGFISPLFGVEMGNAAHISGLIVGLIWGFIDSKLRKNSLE
Description: as §1

[3] = target: T3, Rhomboid domain-containing protein (Thermotoga maritima (strain ATCC 43589 / DSM 3109 / JCM 10099 / NBRC 100826 / MSB8), UniProt Q9WZ53)
T3 sequence (Q9WZ53 whole entry): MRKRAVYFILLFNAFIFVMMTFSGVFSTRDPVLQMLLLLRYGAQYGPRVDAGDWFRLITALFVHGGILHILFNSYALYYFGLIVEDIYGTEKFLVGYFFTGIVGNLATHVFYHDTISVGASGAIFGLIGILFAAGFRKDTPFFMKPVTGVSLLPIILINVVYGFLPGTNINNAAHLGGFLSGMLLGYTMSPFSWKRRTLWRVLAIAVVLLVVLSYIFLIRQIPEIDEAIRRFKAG
Description: as §1

Rhomboid protease GlpG [4] = target: T4, Rhomboid protease GlpG (Escherichia coli (strain K12), UniProt P09391)
T4 sequence (P09391 whole entry): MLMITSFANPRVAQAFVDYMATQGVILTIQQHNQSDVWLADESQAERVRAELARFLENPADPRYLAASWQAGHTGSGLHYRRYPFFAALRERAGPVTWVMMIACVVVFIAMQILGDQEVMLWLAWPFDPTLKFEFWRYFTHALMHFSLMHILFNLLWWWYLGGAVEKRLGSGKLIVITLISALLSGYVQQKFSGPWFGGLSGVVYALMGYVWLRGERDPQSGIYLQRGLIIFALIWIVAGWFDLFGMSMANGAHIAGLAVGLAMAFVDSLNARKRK
Description: as §1

Rhomboid protease AarA = target: T5, Rhomboid protease AarA (Providencia stuartii, UniProt P46116)
T5 sequence (P46116 whole entry): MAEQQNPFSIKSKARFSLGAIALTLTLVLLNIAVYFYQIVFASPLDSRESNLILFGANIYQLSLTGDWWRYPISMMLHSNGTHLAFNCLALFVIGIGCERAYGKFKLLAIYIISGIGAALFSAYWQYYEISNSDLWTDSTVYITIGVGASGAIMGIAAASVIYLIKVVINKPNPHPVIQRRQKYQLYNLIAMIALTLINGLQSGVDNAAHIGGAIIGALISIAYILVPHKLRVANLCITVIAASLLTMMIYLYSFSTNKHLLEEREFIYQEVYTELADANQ
Description: as §1

[5] = target: T6, Rhomboid domain-containing protein (Aquifex aeolicus (strain VF5), UniProt O67346)
T6 sequence (O67346 whole entry): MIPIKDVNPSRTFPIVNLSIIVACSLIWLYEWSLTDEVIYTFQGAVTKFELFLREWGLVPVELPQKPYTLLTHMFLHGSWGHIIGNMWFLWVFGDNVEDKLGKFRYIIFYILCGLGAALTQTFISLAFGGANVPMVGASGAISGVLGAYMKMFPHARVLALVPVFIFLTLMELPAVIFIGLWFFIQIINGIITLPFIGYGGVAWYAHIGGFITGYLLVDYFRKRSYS
Description: as §1

GlpG protein = target: T7, GlpG protein (Vibrio cholerae, UniProt Q9KVP2)
T7 sequence (Q9KVP2 whole entry): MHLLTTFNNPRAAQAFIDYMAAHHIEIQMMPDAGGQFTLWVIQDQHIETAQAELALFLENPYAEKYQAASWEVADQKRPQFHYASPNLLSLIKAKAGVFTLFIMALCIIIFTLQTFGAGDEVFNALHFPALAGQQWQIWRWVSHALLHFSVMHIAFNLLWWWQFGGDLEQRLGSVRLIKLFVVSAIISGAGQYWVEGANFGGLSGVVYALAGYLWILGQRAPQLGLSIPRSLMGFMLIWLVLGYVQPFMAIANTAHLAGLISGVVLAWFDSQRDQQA
Description: as §1

[6] = target: T8, Rhomboid domain-containing protein (Pyrococcus horikoshii (strain ATCC 700860 / DSM 12428 / JCM 9974 / NBRC 100139 / OT-3), UniProt O59166)
T8 sequence (O59166 whole entry): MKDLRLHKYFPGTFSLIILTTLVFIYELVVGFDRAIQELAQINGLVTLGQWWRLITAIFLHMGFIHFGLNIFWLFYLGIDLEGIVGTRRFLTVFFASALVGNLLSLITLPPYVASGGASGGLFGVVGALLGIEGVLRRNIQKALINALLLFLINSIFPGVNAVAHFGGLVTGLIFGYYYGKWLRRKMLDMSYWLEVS
Description: as §1

[7] = target: T9, Rhomboid-related protein 3 (Mus musculus, UniProt P58873)
T9 sequence (P58873 whole entry): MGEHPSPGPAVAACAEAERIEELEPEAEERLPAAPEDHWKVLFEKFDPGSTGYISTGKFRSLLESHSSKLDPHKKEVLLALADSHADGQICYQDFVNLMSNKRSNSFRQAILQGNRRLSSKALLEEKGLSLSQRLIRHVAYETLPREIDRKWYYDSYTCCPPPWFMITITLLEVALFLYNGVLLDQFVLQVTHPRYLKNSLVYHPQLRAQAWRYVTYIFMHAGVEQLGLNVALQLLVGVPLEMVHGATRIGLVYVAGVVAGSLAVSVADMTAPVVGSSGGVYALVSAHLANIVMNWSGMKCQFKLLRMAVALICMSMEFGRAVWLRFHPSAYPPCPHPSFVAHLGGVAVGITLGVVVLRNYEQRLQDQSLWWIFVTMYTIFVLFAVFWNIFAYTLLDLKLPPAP
Description: as §1

[8] = target: Rhomboid protease GluP [F193S,L370F,L379S,R499W] (Bacillus subtilis (strain 168), UniProt P54493, F193S/L370F/L379S/R499W)
Sequence of Rhomboid protease GluP [F193S,L370F,L379S,R499W] (P54493 whole entry F192S/L370F/L379S/R499W): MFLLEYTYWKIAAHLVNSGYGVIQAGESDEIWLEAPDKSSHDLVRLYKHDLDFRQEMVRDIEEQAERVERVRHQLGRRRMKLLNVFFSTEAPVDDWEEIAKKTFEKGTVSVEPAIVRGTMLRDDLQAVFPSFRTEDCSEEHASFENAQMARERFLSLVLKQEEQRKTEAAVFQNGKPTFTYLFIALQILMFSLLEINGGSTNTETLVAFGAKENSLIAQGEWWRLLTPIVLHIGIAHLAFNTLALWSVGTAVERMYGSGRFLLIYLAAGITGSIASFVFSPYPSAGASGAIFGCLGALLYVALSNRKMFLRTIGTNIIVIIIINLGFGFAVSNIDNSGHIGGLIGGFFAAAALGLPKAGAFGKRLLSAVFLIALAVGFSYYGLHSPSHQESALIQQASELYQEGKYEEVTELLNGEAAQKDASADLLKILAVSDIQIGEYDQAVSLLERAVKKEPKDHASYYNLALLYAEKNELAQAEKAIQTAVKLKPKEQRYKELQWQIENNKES
Description: as §1

[9] = target: T10, Rhomboid-related protein 1 (Mus musculus, UniProt Q8VC82)
T10 sequence (Q8VC82 whole entry): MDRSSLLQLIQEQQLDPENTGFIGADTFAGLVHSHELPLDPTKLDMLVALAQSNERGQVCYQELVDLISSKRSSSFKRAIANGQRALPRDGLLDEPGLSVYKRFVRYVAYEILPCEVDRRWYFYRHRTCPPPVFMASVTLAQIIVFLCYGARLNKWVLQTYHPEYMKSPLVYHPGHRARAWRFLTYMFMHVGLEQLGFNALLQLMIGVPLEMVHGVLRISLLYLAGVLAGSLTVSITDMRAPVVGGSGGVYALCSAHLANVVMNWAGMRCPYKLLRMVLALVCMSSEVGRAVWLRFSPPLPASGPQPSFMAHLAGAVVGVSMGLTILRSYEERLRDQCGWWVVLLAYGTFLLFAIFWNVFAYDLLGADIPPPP
Description: as §1

C#CCCC[C@@H]1OC(=O)[C@H]1c1cc(OC)c(OC)c(OC)c1 [(4S)‐4‐(pent‐4‐yn‐1‐yl)‐3‐(3,4,5‐trimethoxyphenyl)oxetan‐2‐one (45)]
IC50 [1]: 5 µM
IC50 (Rhomboid protease GlpG [2]): 65 µM

C#CCCC[C@@H]1OC(=O)[C@H]1CCCCC [(4S)‐4‐(pent‐4‐yn‐1‐yl)‐3‐pentyloxetan‐2‐one (47)]
IC50 [3]: 27 µM

C#CCCC[C@@H]1OC(=O)[C@H]1CCCC [(4S)‐3‐butyl‐4‐(pent‐4‐yn‐1‐yl)oxetan‐2‐one (48)]
IC50 (Rhomboid protease GlpG [4]): 44 µM
IC50 [3]: 48 µM

O=c1oc(Cl)c(Cl)c2ccccc12
IC50 (Rhomboid protease AarA): 10 µM
IC50 (Rhomboid protease GlpG [4]): 19 µM
IC50 [5]: 1.1 µM
IC50 [3]: 1 µM
IC50 (GlpG protein): 27 µM
IC50 [1]: 8.1 µM
IC50 [6]: 16 µM
IC50 [7]: 70 µM
IC50 (Rhomboid protease GlpG [2]): 0.66 µM
IC50 [8]: 4.1 µM
IC50 [9]: 28 µM

O=c1oc(OCCCCCc2ccccc2)c(Cl)c2ccc([N+](=O)[O-])cc12 [4‐Chloro‐7‐nitro‐3‐[(5‐phenylpentyl)oxy]isochromen‐1‐one (21)]
IC50 (Rhomboid protease AarA): 10 µM
IC50 [5]: 1.7 µM
IC50 [3]: 28 µM
IC50 (GlpG protein): 76 µM
IC50 [6]: 25 µM
IC50 [7]: 24 µM
IC50 (Rhomboid protease GlpG [2]): 4.6 µM
IC50 [8]: 25 µM
IC50 [9]: 39 µM
